Assay results reported in the supplement of paper PMC11208160.

Experiment: recombinant UMI read abundance after kanamycin selection (control-corrected) (log10(CPM+1)); higher = more efficient recombination; extreme values may be limits of the assay; sequences stand for … in AGTGCAGAGAAAATCGGCCAGTTTTCTCTGCCTGCAGTCCGCATGCCGTGGGACCCCTTGGGTTCTAACCTGTTGCCTAGATTTATGCAGCGGACTGCCTTTCTCCCAAAGTGATAAACCGG…AGGTTGGTTTCACT; site = the 11-nt donor
Outline: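 Counts of recombinant UMIs were reported as log10(CPM+1). Before that, they were converted to CPM, averaged over replicates and scaled using control-derived factors. They came from PCR across the donor–target junction after Escherichia coli carrying the pair library and target plasmid was plated on IPTG (0.07 mM) plus kanamycin, or unselected, in two replicates each.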
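Further: IS621 bridge recombinase in Escherichia coli cells against a fixed T5 target plasmid.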

Sequence | recombinant UMI read abundance (log10)
CGGTATCCATGGACCGGTTTTCCCGGTAATCCGTATTTGTT (site CGGCATCCTAA) | 0.493
CGGTATCCATGGACCGGTTTTCCCGGTAATCCGTATTTGTT (site CGGGATCCTAA) | 0.0113
CGGTATCCATGGACCGGTTTTCCCGGTAATCCGTATTTGTT (site CGGTATCCTAA) | 0.562
CGGTCGTCATGGACCGGTTTTCCCGGTAATCCGTATTTGCA (site CGGTCGTCTTG) | 1.71
CGGTGGCCATGGACCGGTTTTCCCGGTAATCCGTATTTGGG (site CGGTGGCCTCC) | 0.0062
CGGTTATCATGGACCGGTTTTCCCGGTAATCCGTATTTGCT (site CGATCATCTAG) | 0
CGGTTATCATGGACCGGTTTTCCCGGTAATCCGTATTTGCT (site CGGTTATCTAG) | 2.65
CGGTTTACATGGACCGGTTTTCCCGGTAATCCGTATTTGCT (site CAGTTTACTAG) | 0
CGGTTTACATGGACCGGTTTTCCCGGTAATCCGTATTTGCT (site CCGTTTACTAG) | 0.391
CGGTTTACATGGACCGGTTTTCCCGGTAATCCGTATTTGCT (site CGGTTTACTAG) | 1.33
CGGTTTACATGGACCGGTTTTCCCGGTAATCCGTATTTGCT (site CTGTTTACTAG) | 1.21
CGTAAAGCATGGACCGGTTTTCCCGGTAATCCGTATTTGAT (site CATAAAGCTAT) | 0.355
CGTAAAGCATGGACCGGTTTTCCCGGTAATCCGTATTTGAT (site CCTAAAGCTAT) | 0
CGTAAAGCATGGACCGGTTTTCCCGGTAATCCGTATTTGAT (site CGTAAAGCTAT) | 2.44
CGTAAAGCATGGACCGGTTTTCCCGGTAATCCGTATTTGAT (site CTTAAAGCTAT) | 0
CGTAACACATGGACCGGTTTTCCCGGTAATCCGTATTTGCC (site CGTAACACTGG) | 2.01
CGTAAGACATGGACCGGTTTTCCCGGTAATCCGTATTTGAG (site CGTAAGACTCT) | 1.73
CGTAAGACATGGACCGGTTTTCCCGGTAATCCGTATTTGAG (site CGTCAGACTCT) | 0.0684
CGTAAGACATGGACCGGTTTTCCCGGTAATCCGTATTTGAG (site CGTGAGACTCT) | 0.0574

Sequence | recombinant UMI read abundance (log10)
CGTAAGACATGGACCGGTTTTCCCGGTAATCCGTATTTGAG (site CGTTAGACTCT) | 0.396
CGTACATCATGGACCGGTTTTCCCGGTAATCCGTATTTGCG (site CGTACATCTCG) | 1.29
CGTACGTCATGGACCGGTTTTCCCGGTAATCCGTATTTGTT (site AGTACGTCTAA) | 0.0741
CGTACGTCATGGACCGGTTTTCCCGGTAATCCGTATTTGTT (site CGTACGTCTAA) | 0.728
CGTACGTCATGGACCGGTTTTCCCGGTAATCCGTATTTGTT (site GGTACGTCTAA) | 0.0115
CGTACGTCATGGACCGGTTTTCCCGGTAATCCGTATTTGTT (site TGTACGTCTAA) | 0.00974
CGTACTCCATGGACCGGTTTTCCCGGTAATCCGTATTTGCA (site CGTACTCCTTG) | 0.892
CGTAGAACATGGACCGGTTTTCCCGGTAATCCGTATTTGTT (site CGTAGAACTAA) | 0.685
CGTAGAACATGGACCGGTTTTCCCGGTAATCCGTATTTGTT (site CGTCGAACTAA) | 0.018
CGTAGAACATGGACCGGTTTTCCCGGTAATCCGTATTTGTT (site CGTGGAACTAA) | 0.00623
CGTAGAACATGGACCGGTTTTCCCGGTAATCCGTATTTGTT (site CGTTGAACTAA) | 0.0104
CGTAGTGCATGGACCGGTTTTCCCGGTAATCCGTATTTGTT (site CGTAGTGCTAA) | 0.84
CGTCCAGCATGGACCGGTTTTCCCGGTAATCCGTATTTGCT (site CGTCCAGCTAG) | 0.438
CGTCGAACATGGACCGGTTTTCCCGGTAATCCGTATTTGAA (site CGTCGAACTTT) | 0.822
CGTCGAACATGGACCGGTTTTCCCGGTAATCCGTATTTGTT (site CGTAGAACTAA) | 0
CGTCGAACATGGACCGGTTTTCCCGGTAATCCGTATTTGTT (site CGTCGAACTAA) | 0
CGTCGAACATGGACCGGTTTTCCCGGTAATCCGTATTTGTT (site CGTGGAACTAA) | 0
CGTCGAACATGGACCGGTTTTCCCGGTAATCCGTATTTGTT (site CGTTGAACTAA) | 0.00437
CGTCTATCATGGACCGGTTTTCCCGGTAATCCGTATTTGAT (site CGTCTATCTAT) | 0
